According to ChEMBL document CHEMBL4393680, “Design, synthesis and biological evaluation of novel thioquinazolinone-based 2-aminobenzamide derivatives as potent histone deacetylase (HDAC) inhibitors” (Eur J Med Chem, 2019):

Legend:
[1] = test system: A-375; assay: Antiproliferative activity against human A375 cells assessed as reduction in cell growth at 8 uM incubated for 72 hrs by CCK-8 assay relative to control; format: functional; conditions: A-375, 72 h
[2] = test system: A-375; assay: Antiproliferative activity against human A375 cells assessed as reduction in cell growth at 2 uM incubated for 72 hrs by CCK-8 assay relative to control; format: functional; conditions: A-375, 72 h
[3] = test system: HeLa; assay: Antiproliferative activity against human HeLa cells assessed as reduction in cell growth at 8 uM incubated for 72 hrs by CCK-8 assay relative to control; format: functional
[4] = test system: HeLa; assay: Antiproliferative activity against human HeLa cells assessed as reduction in cell growth at 2 uM incubated for 72 hrs by CCK-8 assay relative to control; format: functional
[5] = test system: A549; assay: Antiproliferative activity against human A549 cells assessed as reduction in cell growth at 8 uM incubated for 72 hrs by CCK-8 assay relative to control; format: functional; conditions: A549, 72 h
[6] = test system: A549; assay: Antiproliferative activity against human A549 cells assessed as reduction in cell growth at 2 uM incubated for 72 hrs by CCK-8 assay relative to control; format: functional; conditions: A549, 72 h
[7] = test system: HCT-116; assay: Antiproliferative activity against human HCT116 cells assessed as reduction in cell growth at 8 uM incubated for 72 hrs by CCK-8 assay relative to control; format: functional; conditions: HCT-116, 72 h
[8] = test system: HCT-116; assay: Antiproliferative activity against human HCT116 cells assessed as reduction in cell growth at 2 uM incubated for 72 hrs by CCK-8 assay relative to control; format: functional; conditions: HCT-116, 72 h
[9] = test system: SMMC-7721; assay: Antiproliferative activity against human SMMC7721 cells assessed as reduction in cell growth at 8 uM incubated for 72 hrs by CCK-8 assay relative to control; format: functional; conditions: SMMC-7721, 72 h
[10] = test system: SMMC-7721; assay: Antiproliferative activity against human SMMC7721 cells assessed as reduction in cell growth at 2 uM incubated for 72 hrs by CCK-8 assay relative to control; format: functional; conditions: SMMC-7721, 72 h
[11] = test system: HCT-116; assay: Antiproliferative activity against human HCT116 cells assessed as reduction in cell growth incubated for 72 hrs by CCK-8 assay; format: functional, cell-based; conditions: HCT-116, 72 h
[12] = test system: SMMC-7721; assay: Antiproliferative activity against human SMMC7721 cells assessed as reduction in cell growth incubated for 72 hrs by CCK-8 assay; format: functional, cell-based; conditions: SMMC-7721, 72 h

CCCCn1c(SCc2ccc(C(=O)Nc3ccccc3N)cc2)nc2cc(F)ccc2c1=O
inhibition at 8 µM [1]: 43.1% | inhibition at 2 µM [2]: 18% | inhibition at 8 µM [3]: 30.9% | inhibition at 2 µM [4]: 30.9% | inhibition at 8 µM [5]: 46.5% | inhibition at 2 µM [6]: 41.1% | inhibition at 8 µM [7]: 78.2% | inhibition at 2 µM [8]: 22.8% | inhibition at 8 µM [9]: 41.6% | inhibition at 2 µM [10]: 9.1% | IC50 [11]: 3.63 µM

CCn1c(SCc2ccc(C(=O)Nc3ccccc3N)cc2)nc2cc(OC)ccc2c1=O
inhibition at 8 µM [1]: 31.4% | inhibition at 2 µM [2]: 20% | inhibition at 8 µM [3]: 44% | inhibition at 2 µM [4]: 42.1% | inhibition at 8 µM [5]: 30.3% | inhibition at 2 µM [6]: 28% | inhibition at 8 µM [7]: 6.7% | inhibition at 2 µM [8]: 5% | inhibition at 8 µM [9]: 45.8% | inhibition at 2 µM [10]: 32.2%

Nc1ccccc1NC(=O)c1ccc(CSc2nc3cc(Br)ccc3c(=O)n2-c2cccc(Cl)c2)cc1
inhibition at 8 µM [1]: 32.9% | inhibition at 2 µM [2]: 17.4% | inhibition at 8 µM [3]: 67% | inhibition at 2 µM [4]: 55% | inhibition at 8 µM [5]: 36.4% | inhibition at 2 µM [6]: 35.6% | inhibition at 8 µM [7]: 31.3% | inhibition at 2 µM [8]: 11.3% | inhibition at 8 µM [9]: 21% | inhibition at 2 µM [10]: 10.5%

COc1ccc2c(=O)n(C)c(SCc3ccc(/C=C/C(=O)Nc4ccccc4N)cc3)nc2c1
inhibition at 8 µM [1]: 10.4% | inhibition at 2 µM [2]: 2.5% | inhibition at 8 µM [3]: 30.2% | inhibition at 2 µM [4]: 20.7% | inhibition at 8 µM [5]: 56.6% | inhibition at 2 µM [6]: 54.3% | inhibition at 8 µM [7]: 12.2% | inhibition at 2 µM [8]: 9.4% | inhibition at 8 µM [9]: 15.4% | inhibition at 2 µM [10]: 3.6%

Cc1ccc2c(=O)n(C)c(SCc3ccc(/C=C/C(=O)Nc4ccccc4N)cc3)nc2c1
IC50 [12]: 6.45 µM | inhibition at 8 µM [1]: 36.1% | inhibition at 2 µM [2]: 29% | inhibition at 8 µM [3]: 27.7% | inhibition at 2 µM [4]: 22.1% | inhibition at 8 µM [5]: 41.4% | inhibition at 2 µM [6]: 20.3% | inhibition at 8 µM [7]: 32.2% | inhibition at 2 µM [8]: 2.3% | inhibition at 8 µM [9]: 63.6% | inhibition at 2 µM [10]: 20.2%

CCn1c(SCc2ccc(C(=O)Nc3cc(F)ccc3N)cc2)nc2cc(OC)ccc2c1=O
IC50 [12]: 4.86 µM | inhibition at 8 µM [1]: 38.8% | inhibition at 2 µM [2]: 17.1% | inhibition at 8 µM [3]: 41.6% | inhibition at 2 µM [4]: 6.9% | inhibition at 8 µM [5]: 36.4% | inhibition at 2 µM [6]: 12.3% | inhibition at 8 µM [7]: 67.8% | inhibition at 2 µM [8]: 50.3% | inhibition at 8 µM [9]: 61.4% | inhibition at 2 µM [10]: 36%

CCn1c(SCc2ccc(C(=O)Nc3ccccc3N)cc2)nc2cc(F)ccc2c1=O
inhibition at 8 µM [1]: 10.3% | inhibition at 2 µM [2]: 8.4% | inhibition at 8 µM [3]: 31% | inhibition at 2 µM [4]: 25.7% | inhibition at 8 µM [5]: 56.5% | inhibition at 2 µM [6]: 54.4% | inhibition at 8 µM [7]: 64.3% | inhibition at 2 µM [8]: 5.3% | inhibition at 8 µM [9]: 20.4% | inhibition at 2 µM [10]: 0.8%

Cc1cccc2nc(SCc3ccc(C(=O)Nc4ccccc4N)cc3)n(C)c(=O)c12
IC50 [12]: 0.69 µM | inhibition at 8 µM [1]: 36.9% | inhibition at 2 µM [2]: 35.6% | inhibition at 8 µM [3]: 58.3% | inhibition at 2 µM [4]: 43.8% | inhibition at 8 µM [5]: 41.8% | inhibition at 2 µM [6]: 34.7% | inhibition at 8 µM [7]: 68.5% | inhibition at 2 µM [8]: 29.1% | inhibition at 8 µM [9]: 68.5% | inhibition at 2 µM [10]: 59.2%

COc1ccc2c(=O)n(-c3cccc(Cl)c3)c(SCc3ccc(C(=O)Nc4ccccc4N)cc3)nc2c1
inhibition at 8 µM [1]: 36% | inhibition at 2 µM [2]: 21.7% | inhibition at 8 µM [3]: 51.2% | inhibition at 2 µM [4]: 12.3% | inhibition at 8 µM [5]: 30% | inhibition at 2 µM [6]: 20.9% | inhibition at 8 µM [7]: 64% | inhibition at 2 µM [8]: 22% | inhibition at 8 µM [9]: 27% | inhibition at 2 µM [10]: 21.3% | IC50 [11]: 5.8 µM

CCn1c(SCc2ccc(C(=O)Nc3ccccc3N)cc2)nc2cc(Br)ccc2c1=O
inhibition at 8 µM [1]: 40.7% | inhibition at 2 µM [2]: 19.8% | inhibition at 8 µM [3]: 41.3% | inhibition at 2 µM [4]: 30.4% | inhibition at 8 µM [5]: 45.4% | inhibition at 2 µM [6]: 20.4% | inhibition at 8 µM [7]: 68.5% | inhibition at 2 µM [8]: 24.8% | inhibition at 8 µM [9]: 36.8% | inhibition at 2 µM [10]: 22.9% | IC50 [11]: 4.33 µM

CCn1c(SCC(=O)Nc2ccccc2N)nc2cc(Cl)ccc2c1=O
inhibition at 8 µM [1]: 32.5% | inhibition at 2 µM [2]: 24.4% | inhibition at 8 µM [3]: 59.7% | inhibition at 2 µM [4]: 39.2% | inhibition at 8 µM [5]: 27.5% | inhibition at 2 µM [6]: 14.2% | inhibition at 8 µM [7]: 6.9% | inhibition at 2 µM [8]: 3.9% | inhibition at 8 µM [9]: 2.1% | inhibition at 2 µM [10]: 1.8%
